# Values of other authors as cited in patent publication US20040038429A1, “Method of searching for novel lead compound” (priority 2000, published 2004).
# Molecular target: Thrombin (Homo sapiens, UniProt P00734)
# Conditions: not given
row,Compound,Known bioactivity
1,CC(=O)O.N=C(N)c1ccc(CC(NC(=O)CNS(=O)(=O)c2ccc3ccccc3c2)C(=O)N2CCCCC2)cc1 (stereo not shown),Thrombin inhibitor
2,N=C(N)c1ccc(CC(NC(=O)CNS(=O)(=O)c2ccc3ccccc3c2)C(=O)N2CCCCC2)cc1 (stereo not shown) [drawing 31],Thrombin inhibitor
3,N=C(N)c1ccc(CC(NC(=O)CNS(=O)(=O)c2ccc3ccccc3c2)C(=O)N2CCCCC2)cc1 (stereo not shown) [drawing 33],Thrombin inhibitor
4,N=C(N)c1ccc(CC(NC(=O)CNS(=O)(=O)c2ccc3ccccc3c2)C(=O)N2CCCCC2)cc1 (stereo not shown) [drawing 16],Thrombin inhibitor

# Same assay, conditions: thrombin
row,Compound,Known bioactivity
1,"Cc1ccc(S(=O)(=O)NC(Cc2ccc(C(=N)N)cc2)C(=O)N2CCCCC2)cc1 (racemic) [4-TAPAP, Nα-(4-toluene-sulfonyl)-DL-p-amidinophenylalanyl-piperidine, reference compound]",thrombin inhibitors
2,COC(=O)[C@H](CCCCN)NS(=O)(=O)c1ccc(C)cc1,Thrombin substrate
3,COC(=O)[C@H](CCCCN)NS(=O)(=O)c1ccc(C)cc1.Cl,Thrombin substrate
4,"C[C@@H]1CCN(C(=O)[C@H](CCCNC(=N)N)NS(=O)(=O)c2cccc3c2NC[C@H](C)C3)[C@@H](C(=O)O)C1 [MQPA, (2R,4R)-4-methyl-1-[Nα-(3-methyl-1,2,3,4-tetrahydro-8-quinolinesulfonyl)-L-arginyl]-2-piperidinecarboxylic acid, reference compound]",thrombin inhibitors
5,CCC1CCCN(C(=O)[C@H](CCCNC(=N)N)NS(=O)(=O)c2cccc3c(N(C)C)cccc23)C1 (stereo partly shown) [drawing 32],Thrombin inhibitor
6,CCC1CCCN(C(=O)[C@H](CCCNC(=N)N)NS(=O)(=O)c2cccc3c(N(C)C)cccc23)C1 (stereo partly shown) [drawing 26],Thrombin inhibitor

# Molecular target: 5-HT4 (Homo sapiens, UniProt Q13639)
# Conditions: not given
# Sequence of 5-HT4 (Q13639 whole entry, species assumed): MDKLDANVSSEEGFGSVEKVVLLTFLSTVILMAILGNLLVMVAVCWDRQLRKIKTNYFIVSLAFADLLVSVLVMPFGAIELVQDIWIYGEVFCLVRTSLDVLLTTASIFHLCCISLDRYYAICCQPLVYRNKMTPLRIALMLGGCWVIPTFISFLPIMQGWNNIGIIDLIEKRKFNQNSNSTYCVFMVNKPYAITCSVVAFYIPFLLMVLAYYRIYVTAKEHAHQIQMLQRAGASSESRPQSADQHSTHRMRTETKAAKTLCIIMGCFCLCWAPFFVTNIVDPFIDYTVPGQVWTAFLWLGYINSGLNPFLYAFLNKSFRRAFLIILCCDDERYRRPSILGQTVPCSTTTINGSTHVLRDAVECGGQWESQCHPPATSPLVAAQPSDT
row,Compound,Known bioactivity
1,COc1cc(N)c(Cl)cc1C(=O)CCC1CCN(CCNS(C)(=O)=O)CC1,5-HT4 Partial agonist

# Molecular target: T1, Trypsin (Bos taurus, UniProt P00760)
# T1 construct: gene PRSS1
# Conditions: not given
# T1 sequence (P00760 24-246): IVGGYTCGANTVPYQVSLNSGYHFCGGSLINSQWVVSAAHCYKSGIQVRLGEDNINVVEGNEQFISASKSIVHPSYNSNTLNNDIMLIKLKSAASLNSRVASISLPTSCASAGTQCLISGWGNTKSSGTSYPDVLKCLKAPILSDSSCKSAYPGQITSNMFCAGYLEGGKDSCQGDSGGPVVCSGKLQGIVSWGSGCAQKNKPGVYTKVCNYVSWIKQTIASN
row,Compound,Known bioactivity
1,Cc1ccc(S(=O)(=O)N[C@@H](CCCCN)C(=O)CCl)cc1.Cl,Trypsin inhibitor
2,Cc1ccc(S(=O)(=O)N[C@@H](CCCCN)C(=O)CCl)cc1,Trypsin inhibitor
